The source of these data is patent US20090233999A1, “COMPOSITIONS AND THERAPEUTIC METHODS INVOLVING ISOFLAVONES AND ANALOGUES THEREOF” (NOVOGEN RESEARCH PTY LTD, priority 1999, published 2009).

Marks after values point to notes of the source that are not given here. Where only a bound is given, the exact number is not on record here.

The first test deals with TNFα. Briefly: LPS-induced TNFα synthesis in human monocytes. The test is classed as cell-based. As to conditions: 100 μM. As to the method:
Test compounds (in DMSO) at 100, 10, and 1 μmol/ were incubated with monocytes at 37° C. for 30 min after which LPS was added (200 ng/ml) and cells were incubated in triplicate for 18 h at 37° C. in 5% CO2. […], supernatants were removed and TNFα measured by ELISA previously described.
Consider `COc1ccc(C2=Cc3ccc(O)c(C)c3OC2)cc1OC` [Cpd. 19, 7-Hydroxy-3′,4′-dimethoxy-8-methylisoflav-3-ene], for which the “synthesis of TNFα” value is “inhibited”.
Still for that read-out and setting: with `Cc1c(O)ccc2c1OCC(c1cccc(O)c1)=C2` [Cpd. 14, 3′,7-Dihydroxy-8-methylisoflav-3-ene] the entry was “inhibited”; with `COc1ccc(C2=Cc3ccc(O)cc3OC2)cc1OC` [Cpd. 18, 7-Hydroxy-3′,4′-dimethoxyisoflav-3-ene], “inhibited”.

The subject of another test is superoxide. Briefly: Extracellular superoxide production by differentiated HL-60 cells (cytochrome C reduction). Conditions: 10 μM; HL-60, PMA. The test is classed as cell-based, human. As to the method:
The human promyeloblast cell line HL-60 can be differentiated into neutrophil-like cells, which then produce ROS when activated. HL-60 cells were grown in RPMI-1640 medium containing glutamine and supplemented with FBS 20%. They were differentiated by culturing for 6 days in medium containing DMSO 1.25%, after which they were washed, centrifuged and incubated at 37° C. for 5 minutes with cytochalasin before transfer to PBS containing cytochrome C and test compound. After a 5 minute incubation, phorbol myristate acetate (PMA) was added to activate the HL-60 cells, which were then incubated for a further 10 minutes. The cells were then pelleted by centrifugation, and the change in absorbance due to reduction of cytochrome C in the cell-free supernatant was measured at 550 nm. The increase in absorbance is a direct measure of extracellular superoxide production by the cells, and a reduction in those samples incubated with test compounds would indicate anti-oxidant activity. Samples were examined in duplicate, and the assay done three times.
Consider `COc1ccc(C2=Cc3ccc(O)c(C)c3OC2)cc1OC` [Cpd. 19, 7-Hydroxy-3′,4′-dimethoxy-8-methylisoflav-3-ene], for which the “extracellular superoxide production, % change compared with vehicle control” value is on record as −11%.
`COc1cccc(C2=Cc3ccc(O)cc3OC2)c1` [Cpd. 16, 7-Hydroxy-3′-methoxyisoflav-3-ene]: the “extracellular superoxide production, % change compared with vehicle control” value was −22%.
The same measure, in the same setting: the result for `Cc1c(O)ccc2c1OCC(c1cccc(O)c1)=C2` [Cpd. 14, 3′,7-Dihydroxy-8-methylisoflav-3-ene] reads −20%; that for `Oc1ccc(C2=Cc3ccc(O)c(Br)c3OC2)cc1` [Cpd. 20, 4′,7-Dihydroxy-8-bromoisoflav-3-ene], 6%; that for `Oc1ccc2c(c1)OCC(c1ccc(Br)cc1)=C2` [Cpd. 21, 4′-Bromo-7-hydroxyisoflav-3-ene], −10%.
Same read-out and setting: with `COc1ccc(C2=Cc3ccc(O)cc3OC2)cc1OC` [Cpd. 18, 7-Hydroxy-3′,4′-dimethoxyisoflav-3-ene] the figure was −24%.

Staying with this test, now noted: 100 μM; HL-60, PMA.
For `COc1ccc(C2=Cc3ccc(O)c(C)c3OC2)cc1OC` [Cpd. 19, 7-Hydroxy-3′,4′-dimethoxy-8-methylisoflav-3-ene], the “extracellular superoxide production, % change compared with vehicle control” value stood at 16%.
Consider `COc1cccc(C2=Cc3ccc(O)cc3OC2)c1` [Cpd. 16, 7-Hydroxy-3′-methoxyisoflav-3-ene], for which the “extracellular superoxide production, % change compared with vehicle control” value is −57* %.
For `Cc1c(O)ccc2c1OCC(c1cccc(O)c1)=C2` [Cpd. 14, 3′,7-Dihydroxy-8-methylisoflav-3-ene], the “extracellular superoxide production, % change compared with vehicle control” value was −20%.
Still for that read-out and setting: the result for `Oc1ccc(C2=Cc3ccc(O)c(Br)c3OC2)cc1` [Cpd. 20, 4′,7-Dihydroxy-8-bromoisoflav-3-ene] reads 28%.
Regarding `Oc1ccc2c(c1)OCC(c1ccc(Br)cc1)=C2` [Cpd. 21, 4′-Bromo-7-hydroxyisoflav-3-ene], the “extracellular superoxide production, % change compared with vehicle control” value is on record as −11%.
On the same count and under the same terms, with `COc1ccc(C2=Cc3ccc(O)cc3OC2)cc1OC` [Cpd. 18, 7-Hydroxy-3′,4′-dimethoxyisoflav-3-ene] the figure was −36* %.

The same test, now with this note: Cpd. 16 at 100 μM.
Regarding `COc1ccc(C2=Cc3ccc(O)c(C)c3OC2)cc1OC` [Cpd. 19, 7-Hydroxy-3′,4′-dimethoxy-8-methylisoflav-3-ene], the “inhibition of superoxide production” value is “trend towards inhibition”.
On the same count and under the same terms, with `COc1cccc(C2=Cc3ccc(O)cc3OC2)c1` [Cpd. 16, 7-Hydroxy-3′-methoxyisoflav-3-ene] the entry was “significantly inhibited”; with `Cc1c(O)ccc2c1OCC(c1cccc(O)c1)=C2` [Cpd. 14, 3′,7-Dihydroxy-8-methylisoflav-3-ene], “trend towards inhibition”.
Regarding `Oc1ccc(C2=Cc3ccc(O)c(Br)c3OC2)cc1` [Cpd. 20, 4′,7-Dihydroxy-8-bromoisoflav-3-ene], the “inhibition of superoxide production” value is listed as “not active”.
For the compound `Oc1ccc2c(c1)OCC(c1ccc(Br)cc1)=C2` [Cpd. 21, 4′-Bromo-7-hydroxyisoflav-3-ene], the “inhibition of superoxide production” value was “trend towards inhibition”.

The next test deals with 5-LO (LTB4 synthesis). Description: Synthesis of LTB4 and metabolites by neutrophils (lipoxygenase). It is filed as cell-based. As to conditions: Neutrophil; calcium ionophore-stimulated human neutrophils. As to the method: The pathway for LTB4 synthesis involves initial release of AA from phospholipids by a Ca-dependent PLA2. The free AA is then oxygenated at by 5-LO (requiring enzyme activation by FLAP) to generate an epoxide intermediate (LTA4). LTA4 is then converted to LTB4 by LTA4 hydrolase. LTB4 is metabolised (and deactivated) by a cytochrome P-(CYP) 450 […] to produce 20-hydroxy and 20-carboxy metabolites. These metabolites are also measured in the HPLC assay.
Neutrophils were isolated from citrated human venous blood to >90% purity by centrifugation through Ficoll, dextran sedimentation and lysis of erythrocytes. Cells were washed in HEPES buffered Hanks solution (HBHS) and then suspended at 4.5 million cells/mL in HBHS containing 0.1% bovine serum albumin (HBHS+BSA).
Experiments had been carried out previously to optimise the stimulation of neutrophils by calcium ionophore. At 37° C., cells were incubated with the test compound in 10 μL DMSO for 5 min before addition of 100 μL of 25 ng/μL calcium ionophore (free acid form, Sigma) with 0.5% DMSO in HBHS+BSA. The cells were incubated for 10 min then pelleted by centrifugation at 4° C. for 5 min and the cell free supernatant used to quantitate the levels of LTB4 and its metabolites.
To each 900 μL aliquot of the supernatant, 25 μL of prostaglandin B2 (PGB2) 2.5 ng/μL in ethanol was added as internal standard. The solution was acidified to pH≦3 with 2M formic acid and the mixture extracted with 2 mL ethyl acetate and vigorous vortexing. The organic layer was collected and dried under nitrogen in a glass vial before reconstituted in 50 μL of the reconstitution solution (water:methanol:acetonitrile at 2:1:1).
Analysis was carried out using an HPLC system with a 125-4 LiChrospher®100 RP-18 (5 μm) column (Agilent Technologies) and a gradient system adapted from a published method to separate LTB4, its oxidation products 20-hydroxy LTB4 (20-OH-LTB4) and 20-carboxy LTB4 (20-COOH-LTB4), as well as PGB2. At 1 ml/min flow rate, a combination of three different mobile phase solutions was used:
A (water:methanol:acetonitrile:trifluoroacetic acid at 80:40:40:0.1, pH=3 with Et3N), B (methanol:acetonitrile at 1:1), and C (methanol).
UV absorbance was monitored at 270 nm, and LTB4 and its metabolites were quantitated by comparison of peak areas with that of internal standard and a standard curve prepared earlier.
Turning to `COc1ccc(C2=Cc3ccc(O)c(C)c3OC2)cc1OC` [Cpd. 19, 7-Hydroxy-3′,4′-dimethoxy-8-methylisoflav-3-ene], the IC50 (usually the concentration needed to halve the response being measured) amounted to 0.3 µM.
As for `COc1cccc(C2=Cc3ccc(O)cc3OC2)c1` [Cpd. 16, 7-Hydroxy-3′-methoxyisoflav-3-ene], the IC50 was determined as 2.2 µM.
Same read-out and setting: the result for `Cc1c(O)ccc2c1OCC(c1cccc(O)c1)=C2` [Cpd. 14, 3′,7-Dihydroxy-8-methylisoflav-3-ene] reads less than 0.1 µM; that for `Oc1ccc(C2=Cc3ccc(O)c(Br)c3OC2)cc1` [Cpd. 20, 4′,7-Dihydroxy-8-bromoisoflav-3-ene], 0.9 µM.
Still for that read-out and setting: with `COc1ccc(C2=Cc3ccc(O)cc3OC2)cc1OC` [Cpd. 18, 7-Hydroxy-3′,4′-dimethoxyisoflav-3-ene] the figure was 0.5 µM.

Another test concerns IL-6. Description: IL-6 production by murine splenocytes. Conditions: 10 μM; Con A. It is filed as cell-based, mouse. As to the method: (§1) Male Skh-1 (hairless) mice, approximately six weeks old were killed by cervical dislocation. Single cell suspensions were made from the spleen and erythrocytes were lysed in buffer (0.14M NH4Cl, 17 mM Tris, pH 7.2). The remaining splenocytes were cultured in RPMI-1640 (Gibco) supplemented with 10% (v:v) FBS, 2 mM L-glutamine, pen/strep and 50 μM 2-mercaptoethanol. Splenocytes were added to quadruplicate wells containing either the T cell mitogen concanavalin A (Con A, Sigma-Aldrich—0. 4 μg/well), the B-cell mitogen LPS (Sigma-Aldrich—1 μg/well) or no mitogen, as well as test compound at a concentration of 10 μM in DMSO. Samples were analysed after a 3 day incubation at 37° C. in 5% CO2 in air. Cell viability was assessed by adding MTT to each well, incubating for a further 4 hrs and then developing colour with 0.04N HCl in isopropanol. Supernatant samples were frozen at −80° C. and IL-6, IFN-γ and TNFα were detected in triplicate using ELISA kits (BD Biosciences).
With `COc1ccc(C2=Cc3ccc(O)c(C)c3OC2)cc1OC` [Cpd. 19, 7-Hydroxy-3′,4′-dimethoxy-8-methylisoflav-3-ene], the “IL-6 production in T cells” value is given as “reduced”.
For `COc1cccc(C2=Cc3ccc(O)cc3OC2)c1` [Cpd. 16, 7-Hydroxy-3′-methoxyisoflav-3-ene], the “IL-6 production in T cells” value is “reduced”.
The same measure, in the same setting: with `Oc1ccc(C2=Cc3ccc(O)c(Br)c3OC2)cc1` [Cpd. 20, 4′,7-Dihydroxy-8-bromoisoflav-3-ene] the entry was “most marked”; with `COc1ccc(C2=Cc3ccc(O)cc3OC2)cc1OC` [Cpd. 18, 7-Hydroxy-3′,4′-dimethoxyisoflav-3-ene], “reduced”.

The next test has as its system TNFα. Briefly: LPS-induced TNFα synthesis in RAW 264.7 murine macrophages. The test is classed as cell-based, mouse. Conditions: 10 μM; RAW 264.7, LPS. As to the method:
Subconfluent RAW 264.7 cells were seeded into 24-well plates at 5×10^5 cells per well and allowed to adhere for 1 hr. Cells were then treated either test compound (in 0.025% DMSO) or vehicle alone, and incubated for 1 hr. LPS 50 ng/ml (LPS—Sigma-Aldrich) was then added. After incubation for 16 hrs, culture media was collected and stored at −80° C. TNFα measurement using an ELISA (Becton Dickinson).
On to `COc1ccc(C2=Cc3ccc(O)c(C)c3OC2)cc1OC` [Cpd. 19, 7-Hydroxy-3′,4′-dimethoxy-8-methylisoflav-3-ene], for which the “synthesis of TNFα” value was “inhibited”.
Same read-out and setting: with `COc1cccc(C2=Cc3ccc(O)cc3OC2)c1` [Cpd. 16, 7-Hydroxy-3′-methoxyisoflav-3-ene] the entry was “tended to do so”.
Still for that read-out and setting: the result for `Cc1c(O)ccc2c1OCC(c1cccc(O)c1)=C2` [Cpd. 14, 3′,7-Dihydroxy-8-methylisoflav-3-ene] reads “tended to do so”.
The same measure, in the same setting: with `Oc1ccc(C2=Cc3ccc(O)c(Br)c3OC2)cc1` [Cpd. 20, 4′,7-Dihydroxy-8-bromoisoflav-3-ene] the entry was “tended to do so”.
With `Oc1ccc2c(c1)OCC(c1ccc(Br)cc1)=C2` [Cpd. 21, 4′-Bromo-7-hydroxyisoflav-3-ene], the “synthesis of TNFα” value is reported as “inhibited”.
Still for that read-out and setting: the result for `COc1ccc(C2=Cc3ccc(O)cc3OC2)cc1OC` [Cpd. 18, 7-Hydroxy-3′,4′-dimethoxyisoflav-3-ene] reads “inhibited”.

The subject of the next test is TNFα. Description: TNFα production by murine splenocytes. It is filed as cell-based, mouse. Conditions: 10 μM; LPS. As to the method: as §1
`COc1ccc(C2=Cc3ccc(O)c(C)c3OC2)cc1OC` [Cpd. 19, 7-Hydroxy-3′,4′-dimethoxy-8-methylisoflav-3-ene]: the “TNFα synthesis by B cells” value is “inhibited”.
Still for that read-out and setting: the result for `COc1cccc(C2=Cc3ccc(O)cc3OC2)c1` [Cpd. 16, 7-Hydroxy-3′-methoxyisoflav-3-ene] reads “induced”.
On the same count and under the same terms, the result for `Cc1c(O)ccc2c1OCC(c1cccc(O)c1)=C2` [Cpd. 14, 3′,7-Dihydroxy-8-methylisoflav-3-ene] reads “induced”; that for `Oc1ccc(C2=Cc3ccc(O)c(Br)c3OC2)cc1` [Cpd. 20, 4′,7-Dihydroxy-8-bromoisoflav-3-ene], “induced”; that for `Oc1ccc2c(c1)OCC(c1ccc(Br)cc1)=C2` [Cpd. 21, 4′-Bromo-7-hydroxyisoflav-3-ene], “induced”.

A further test relates to splenocytes (T and B cells). Description: Murine splenocyte viability and proliferation (Con A, LPS, no mitogen; MTT). It is filed as cell-based, mouse. Conditions: 10 μM; Con A / LPS; 3 day. As to the method:
as §1
As to `COc1cccc(C2=Cc3ccc(O)cc3OC2)c1` [Cpd. 16, 7-Hydroxy-3′-methoxyisoflav-3-ene], the “proliferation of T and B cells” value is reported as “augmented”.
Still for that read-out and setting: with `Cc1c(O)ccc2c1OCC(c1cccc(O)c1)=C2` [Cpd. 14, 3′,7-Dihydroxy-8-methylisoflav-3-ene] the entry was “augmented”; with `Oc1ccc(C2=Cc3ccc(O)c(Br)c3OC2)cc1` [Cpd. 20, 4′,7-Dihydroxy-8-bromoisoflav-3-ene], “inhibited”.

Staying with this test, now noted: 10 μM; no mitogen; 3 day.
Consider `COc1cccc(C2=Cc3ccc(O)cc3OC2)c1` [Cpd. 16, 7-Hydroxy-3′-methoxyisoflav-3-ene], for which the “effect on non-proliferating (resting) splenocytes” value is recorded as “augmented”.
On the same count and under the same terms, the result for `Cc1c(O)ccc2c1OCC(c1cccc(O)c1)=C2` [Cpd. 14, 3′,7-Dihydroxy-8-methylisoflav-3-ene] reads “augmented”; that for `Oc1ccc(C2=Cc3ccc(O)c(Br)c3OC2)cc1` [Cpd. 20, 4′,7-Dihydroxy-8-bromoisoflav-3-ene], “suppressive”.
